Reference: PubChem BioAssay (NCI)
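Compound exposure: 48 hours, 5 concentrations, 96-well plates. TGI: concentration producing complete growth inhibition.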

Key:
Assay in all cases: growth of human tumour cells (NCI), 48 h
SF-539 CNS = test system: SF-539 CNS
SR leukemia = test system: SR leukemia
ACHN renal = test system: ACHN renal
HCT-15 colon = test system: HCT-15 colon
MALME-3M melanoma = test system: MALME-3M melanoma
HT29 colon = test system: HT29 colon
UACC-257 melanoma = test system: UACC-257 melanoma
OVCAR-4 ovarian = test system: OVCAR-4 ovarian
M14 melanoma = test system: M14 melanoma
TK-10 renal = test system: TK-10 renal
CCRF-CEM leukemia = test system: CCRF-CEM leukemia
DMS 273 small cell lung = test system: DMS 273 small cell lung
EKVX NSCLC = test system: EKVX NSCLC
HL-60(TB) leukemia = test system: HL-60(TB) leukemia
LOX IMVI melanoma = test system: LOX IMVI melanoma
NCI-H460 lung = test system: NCI-H460 lung
SNB-75 CNS = test system: SNB-75 CNS
SK-OV-3 ovarian = test system: SK-OV-3 ovarian
HCC-2998 colon = test system: HCC-2998 colon
U251 CNS = test system: U251 CNS
M19-MEL melanoma = test system: M19-MEL melanoma
NCI-H522 lung = test system: NCI-H522 lung
IGROV1 ovarian = test system: IGROV1 ovarian
786-0 renal = test system: 786-0 renal
SF-295 CNS = test system: SF-295 CNS
HOP-92 NSCLC = test system: HOP-92 NSCLC
HCT-116 colon = test system: HCT-116 colon
DMS 114 small cell lung = test system: DMS 114 small cell lung
OVCAR-5 ovarian = test system: OVCAR-5 ovarian
SK-MEL-5 melanoma = test system: SK-MEL-5 melanoma
HOP-18 NSCLC = test system: HOP-18 NSCLC
NCI-H23 lung = test system: NCI-H23 lung
A549 NSCLC = test system: A549 NSCLC
MOLT-4 leukemia = test system: MOLT-4 leukemia
RXF 393 renal = test system: RXF 393 renal
KM12 colon = test system: KM12 colon
OVCAR-8 ovarian = test system: OVCAR-8 ovarian
DLD-1 colon = test system: DLD-1 colon
HOP-62 NSCLC = test system: HOP-62 NSCLC
CAKI-1 renal = test system: CAKI-1 renal
KM20L2 colon = test system: KM20L2 colon
UACC-62 melanoma = test system: UACC-62 melanoma
SN12C renal = test system: SN12C renal
A498 renal = test system: A498 renal
SW-620 colon = test system: SW-620 colon
SK-MEL-28 melanoma = test system: SK-MEL-28 melanoma
COLO 205 colon = test system: COLO 205 colon
SF-268 CNS = test system: SF-268 CNS
NCI-H226 lung = test system: NCI-H226 lung
K-562 leukemia = test system: K-562 leukemia
UO-31 renal = test system: UO-31 renal
SNB-19 CNS = test system: SNB-19 CNS
OVCAR-3 ovarian = test system: OVCAR-3 ovarian
SK-MEL-2 melanoma = test system: SK-MEL-2 melanoma
RXF-631 renal = test system: RXF-631 renal
SNB-78 CNS = test system: SNB-78 CNS
LXFL 529 NSCLC = test system: LXFL 529 NSCLC
XF 498 CNS = test system: XF 498 CNS

Measured: TGI

Cc1cc(S(=O)(=O)O)c(NC(=O)C(=O)Cc2cc(=O)oc3cc(O)ccc23)cc1Cl
not listed: SNB-78 CNS | LXFL 529 NSCLC | XF 498 CNS
> 100 µM: all other assays above

O=C1NP23(OCCO2)Oc2ccccc2C3(C(F)(F)F)O1 (configuration not stated)
not listed: SR leukemia | EKVX NSCLC | HCC-2998 colon | IGROV1 ovarian | 786-0 renal | HOP-92 NSCLC | OVCAR-5 ovarian | RXF 393 renal | HOP-62 NSCLC | CAKI-1 renal | KM20L2 colon | A498 renal | SW-620 colon | COLO 205 colon | UO-31 renal | RXF-631 renal
> 100 µM: all other assays above
